Experimental data: ChEMBL document CHEMBL3585327 (Medchemcomm, 2014)

How the values were obtained:
D(2) dopamine receptor [1] = target: T1, D(2) dopamine receptor (Homo sapiens, UniProt P14416); assay: Agonist activity at human dopamine D2L receptor expressed in CHO cell membranes after 1 hr by [35S]-GTPgammaS binding assay; format: functional
D(2) dopamine receptor [2] = target: T1, D(2) dopamine receptor; assay: Agonist activity at human dopamine D2L receptor expressed in CHO cell membranes after 1 hr by [35S]-GTPgammaS binding assay relative to 100 uM quinelorane; format: functional
D(2) dopamine receptor [3] = target: T1, D(2) dopamine receptor; assay: Potency index, ratio of quinelorane EC50 to compound EC50 for human dopamine D2L receptor expressed in CHO cell membranes; format: cell-based
D(1A) dopamine receptor = D(1A) dopamine receptor (Homo sapiens, UniProt P21728); assay: Binding affinity to human dopamine D1 receptor
Sequence of D(1A) dopamine receptor (P21728 whole entry): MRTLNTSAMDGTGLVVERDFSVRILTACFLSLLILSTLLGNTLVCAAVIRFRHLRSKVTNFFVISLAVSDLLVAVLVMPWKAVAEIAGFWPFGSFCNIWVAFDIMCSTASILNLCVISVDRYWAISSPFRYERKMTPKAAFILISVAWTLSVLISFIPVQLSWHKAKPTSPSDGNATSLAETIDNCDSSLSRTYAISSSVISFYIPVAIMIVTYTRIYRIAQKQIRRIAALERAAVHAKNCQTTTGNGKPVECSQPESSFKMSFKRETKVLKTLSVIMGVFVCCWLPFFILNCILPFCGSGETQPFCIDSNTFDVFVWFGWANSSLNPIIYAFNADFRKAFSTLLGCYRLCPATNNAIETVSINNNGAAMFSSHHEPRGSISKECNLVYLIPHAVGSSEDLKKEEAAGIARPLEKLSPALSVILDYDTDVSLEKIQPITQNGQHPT

D(2) dopamine receptor [4] = target: T1, D(2) dopamine receptor; assay: Binding affinity to human dopamine D2 receptor
D(4) dopamine receptor = target: T2, D(4) dopamine receptor (Homo sapiens, UniProt P21917); assay: Binding affinity to human dopamine D4 receptor
T2 sequence (P21917 whole entry): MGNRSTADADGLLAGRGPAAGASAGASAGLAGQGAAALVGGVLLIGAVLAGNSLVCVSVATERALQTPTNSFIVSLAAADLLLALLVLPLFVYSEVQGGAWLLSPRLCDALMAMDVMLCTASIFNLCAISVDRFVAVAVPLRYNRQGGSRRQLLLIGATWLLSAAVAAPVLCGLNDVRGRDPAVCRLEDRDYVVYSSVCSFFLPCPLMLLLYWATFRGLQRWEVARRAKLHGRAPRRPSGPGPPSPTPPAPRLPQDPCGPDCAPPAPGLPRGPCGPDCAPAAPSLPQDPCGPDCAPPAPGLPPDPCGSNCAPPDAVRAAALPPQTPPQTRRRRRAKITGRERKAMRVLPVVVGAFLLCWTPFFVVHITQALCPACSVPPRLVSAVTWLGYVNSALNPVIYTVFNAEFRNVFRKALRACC

D(1B) dopamine receptor = D(1B) dopamine receptor (Homo sapiens, UniProt P21918); assay: Binding affinity to human dopamine D5 receptor
Sequence of D(1B) dopamine receptor (P21918 whole entry): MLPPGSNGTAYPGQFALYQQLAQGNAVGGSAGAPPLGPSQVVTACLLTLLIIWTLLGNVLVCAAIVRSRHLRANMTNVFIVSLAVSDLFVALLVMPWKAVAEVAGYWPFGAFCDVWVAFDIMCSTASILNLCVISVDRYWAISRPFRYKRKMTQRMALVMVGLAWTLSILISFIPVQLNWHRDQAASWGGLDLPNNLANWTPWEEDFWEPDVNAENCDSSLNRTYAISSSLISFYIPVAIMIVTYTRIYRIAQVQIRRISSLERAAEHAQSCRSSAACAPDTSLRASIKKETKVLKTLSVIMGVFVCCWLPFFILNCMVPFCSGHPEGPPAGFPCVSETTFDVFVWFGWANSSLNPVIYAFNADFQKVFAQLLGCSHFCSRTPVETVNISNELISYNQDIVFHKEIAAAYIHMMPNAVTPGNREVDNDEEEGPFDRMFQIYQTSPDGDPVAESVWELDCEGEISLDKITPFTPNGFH

T1 sequence (P14416 whole entry): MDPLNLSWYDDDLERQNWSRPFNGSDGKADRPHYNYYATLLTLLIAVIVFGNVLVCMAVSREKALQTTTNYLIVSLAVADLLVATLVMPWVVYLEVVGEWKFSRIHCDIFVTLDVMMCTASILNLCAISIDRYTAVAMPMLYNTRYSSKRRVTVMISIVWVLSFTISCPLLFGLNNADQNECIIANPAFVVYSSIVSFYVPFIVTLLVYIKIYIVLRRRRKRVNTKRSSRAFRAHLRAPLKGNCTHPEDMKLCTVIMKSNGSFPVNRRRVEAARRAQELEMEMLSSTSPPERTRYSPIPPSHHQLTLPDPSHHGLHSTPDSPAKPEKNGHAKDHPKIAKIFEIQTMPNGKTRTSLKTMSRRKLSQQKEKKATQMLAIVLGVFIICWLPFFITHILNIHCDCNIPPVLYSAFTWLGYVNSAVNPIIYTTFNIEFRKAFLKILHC

Row | EC50 (D(2) dopamine receptor [1]; read-out: EC50) [nM] | Emax (D(2) dopamine receptor [2]) [%] | Structure (SMILES) | further results
1 | 3.9 | 85 | CCCN(CCCNC(=O)CCCCCCCCCCC(=O)NCCCN(CCC)CCc1cccc2c1CC(=O)N2)CCc1cccc2c1CC(=O)N2 | Ratio EC50 (D(2) dopamine receptor [3]): 3
2 | 85 | 92 | CCCNCCc1cccc2c1CC(=O)N2 | 
3 | 55 | 90 | CCCN(CCCC(=O)OCC)CCc1cccc2c1CC(=O)N2 | 
4 | 219 | 69 | CCCN(CCCNC(=O)OC(C)(C)C)CCc1cccc2c1CC(=O)N2 | 
5 | 22 | 99 | CCCN(CCCNC(=O)CCCCCCC(=O)NCCCN(CCC)CCc1cccc2c1CC(=O)N2)CCc1cccc2c1CC(=O)N2 | 
6 | 14 | 58 | CCCN(CCCNC(=O)CCCCCCCCCCCCCCCCCCC(=O)NCCCN(CCC)CCc1cccc2c1CC(=O)N2)CCc1cccc2c1CC(=O)N2 | Ratio EC50 (D(2) dopamine receptor [3]): 3
7 | 6.2 | 85 | CCCN(CCCNC(=O)CCCCCCCCCCCCCCC(=O)NCCCN(CCC)CCc1cccc2c1CC(=O)N2)CCc1cccc2c1CC(=O)N2 | Ratio EC50 (D(2) dopamine receptor [3]): 3
8 | 28 | 94 | CCCN(CCCNC(=O)CCC(=O)NCCCN(CCC)CCc1cccc2c1CC(=O)N2)CCc1cccc2c1CC(=O)N2 | 
9 |  |  | CCCN(CCC)CCc1cccc2c1CC(=O)N2 [ROPINIROLE] | Ki (D(1A) dopamine receptor): 32500 nM; Ki (D(2) dopamine receptor [4]): 3.7 nM; Ki (D(4) dopamine receptor): 7.8 nM; Ki (D(1B) dopamine receptor): 41200 nM
10 | 42 | 78 | CCCCCCCCCC(=O)NCCCN(CCC)CCc1cccc2c1CC(=O)N2 | 
11 | 4680 | 72 | CCCN(CCCNC(=O)CCC(=O)O)CCc1cccc2c1CC(=O)N2 | 
12 | 1410 | 45 | CCCN(CCCNC(=O)OC(C)(C)C)CCc1cccc2c1CC(=O)N2CCCNC(=O)OC(C)(C)C | EC50 (D(2) dopamine receptor [1]; read-out: pEC50 (converted)): 1450 nM

Row | Structure (SMILES) | EC50 (D(2) dopamine receptor [1]; read-out: EC50) [nM] | Emax (D(2) dopamine receptor [2]) [%] | further results
13 | CCCN1CCC[C@@H]2Cc3nc(N)ncc3C[C@H]21 [QUINELORANE] | 45 |  | 
